Columns and labels:
Type in all cases: cell-based
[1] = test system: TNFα induced ACH-2 cells (HIV IIIB provirus); assay: ACH-2 latent infection assay, supernatant reverse transcriptase activity; parameters: % VC (percent of virus control): unit not given here; settings: exp 2
Procedure: U1 and ACH-2 cells were obtained from the AIDS Research and Reference Reagent Program and maintained under standard culture conditions in RPMI 1640 supplemented with 10% fetal bovine serum (heat inactivated), supplemented with 2 mM […], 100U/ml penicillin and 100 μg/ml, streptomycin. U1 cells were derived from the histocytic leukemia cell line U937, and contain a single integrated copy (HIV IIIB) […] a cytokine and/or phorbol inducible provirus. ACH-2 cells are derived from the A3.01 T lymphoblastic cell line, and contain 2 copies of the HIV IIIB provirus, however only one is cytokine and/or phorbol inducible. Cultures were maintained in such a way as to ensure exponential growth of the populations. At the time of the assay, cells were collected by centrifugation and counted by hemacytometer. If cell viability by Trypan Blue dye exclusion was less than 70% the assay was terminated. The cells were adjusted to 5×10^4 cells/mL and 100 μL, placed in 96 well plates with 100 μL media containing a final concentration of […] TNFα and the test compound. Cultures were incubated for 3 days and supernatants harvested. Compound toxicity was determined by MTS dye reduction. Virus expression was measured by supernatant reverse transcriptasc activity.
(§1) Reverse transcriptase activity was measured in cell-free supernatants. Tritiated thymidine triphosphate (NEN) (TTP) was resuspended in distilled H2O at 5 Ci/mL. Poly rA and oligo dT were prepared as a stock solution which was kept at −20° C. The RT reaction buffer was prepared fresh on a daily basis and consists of 125 μL 1.0 M EGTA, 125 μL dH2O, 110 μL 10% SDS, 50 μL 1.0 M Tris (pH 7.4), 50 μL, 1.0 M DTT, and 40 μL 1.0 M MgCl2. These three solutions were mixed together in a ratio of 2 parts TTP, 1 part poly rA:oligo dT, and 1 part reaction buffer. Ten microliters of this reaction mixture was placed in a round bottom microtiter plate and 15 μL of virus containing supernatant was added and mixed. The plate was incubated at 37° C. in a water bath with a solid support to prevent submersion of the plate and incubated for 60 minutes. Following reaction, the reaction volume was spotted onto pieces of DE81 paper, washed 5 times for 5 minutes each in a 5% sodium phosphate buffer, 2 times for 1 minute each in distilled water, 2 times for 1 minute each in 70% ethanol, and then dried. Opti-Fluor O was added to each sample and incorporated radioactivity was quantitated utilizing a Wallac 1450 Microbetaplus liquid scintillation counter.

[2] = test system: HIV RoJo (a clinical isolate); assay: Chronically infected PBMCs, supernatant reverse transcriptase activity
Procedure: as §1
In these studies PBMCs are infected with HIV RoJo (a clinical isolate) and a dynamic population of infected PBMCs established over a period of 2 to 3 weeks. This population of infected PBMCs was established and maintained by the addition of fresh PBMCs in a 1:1 ratio every 7 days, thus overcoming the lost of PBMCs to normal cell death processes. Thus a population of cells was established that consisted of uninfected cells, short lived infected cells and long lived infected cells. In experiments where AZT was added to prevent re-infection of the population, we typically saw a 50% reduction in infection following a 7 day treatment. This means that 50% of the virus production from the infected […] population was due re-infection. […] Thus there was a population of infected PBMCs present ([…] of the total) which survived for extended periods of time and thus met the definition of being chronically infected.

HeLa CD4 LTR β-gal cells = assay: Cytotoxicity for HeLa CD4 LTR β-gal cells; settings: initial testing
Procedure: At assay termination the assay plates were stained with the soluble tetrazolium-based dye MTS (CellTiter® Reagent, Promega) to determined cell viability and quantify compound toxicity. […] At termination of the assay 20 μL of MTS reagent was added per well. The wells were incubated for 4 h at 37° C., 5% CO2. Adhesive plate scalers were used in place of the lids, the sealed plate was inverted several times to mix the soluble formazan product and the plate was read spectrophotometrically at 490 nm with a 650 nm reference wavelength on a Molecular Devices Vmax plate reader.
This cell line represents one of 3 standard models for performing time of addition assays.

## Potassium Iodiscorbate [Compound K]
[1]; 0.00063 uM
  % VC (percent of virus control): 114.4
  RT ACTIVITY (cpm) MEAN: 22470 cpm
[1]; 0.002 uM
  % VC (percent of virus control): 98.0
  RT ACTIVITY (cpm) MEAN: 19246 cpm
[1]; 0.00625 uM
  % VC (percent of virus control): 105.2
  RT ACTIVITY (cpm) MEAN: 20672 cpm
[1]; 0.02 uM
  % VC (percent of virus control): 125.7
  RT ACTIVITY (cpm) MEAN: 24682 cpm
[1]; 0.0625 uM
  % VC (percent of virus control): 119.1
  RT ACTIVITY (cpm) MEAN: 23403 cpm
[1]; 0.2 uM
  % VC (percent of virus control): 115.0
  RT ACTIVITY (cpm) MEAN: 22593 cpm
[1]; 0.625 uM
  % VC (percent of virus control): 97.7
  RT ACTIVITY (cpm) MEAN: 19189 cpm
[1]; 2 uM
  % VC (percent of virus control): 93.6
  RT ACTIVITY (cpm) MEAN: 18381 cpm
[1]; 6.25 uM
  % VC (percent of virus control): 32.7
  RT ACTIVITY (cpm) MEAN: 6432 cpm
[1]; 20 uM
  % VC (percent of virus control): 15.3
  RT ACTIVITY (cpm) MEAN: 3011 cpm
[1]; 62.5 uM
  % VC (percent of virus control): 0.58
  RT ACTIVITY (cpm) MEAN: 113 cpm
[1]; 200 uM
  % VC (percent of virus control): 0.55
  RT ACTIVITY (cpm) MEAN: 108 cpm
[2]; Day 7, 1 μg/ml
  Percent Control by Supernatant Reverse Transcriptase activity: 94 Percent Control
[2]; Day 7, 5 μg/ml
  Percent Control by Supernatant Reverse Transcriptase activity: 87 Percent Control
[2]; Day 7, 10 μg/ml
  Percent Control by Supernatant Reverse Transcriptase activity: 92 Percent Control
[2]; Day 7, 25 μg/ml
  Percent Control by Supernatant Reverse Transcriptase activity: 84 Percent Control
[2]; Day 7, 50 μg/ml
  Percent Control by Supernatant Reverse Transcriptase activity: 70 Percent Control
[2]; Day 7, 100 μg/ml
  Percent Control by Supernatant Reverse Transcriptase activity: 34 Percent Control
[2]; Day 14, 1 μg/ml
  Percent Control by Supernatant Reverse Transcriptase activity: 94 Percent Control
[2]; Day 14, 5 μg/ml
  Percent Control by Supernatant Reverse Transcriptase activity: 57 Percent Control
[2]; Day 14, 10 μg/ml
  Percent Control by Supernatant Reverse Transcriptase activity: 66 Percent Control
[2]; Day 14, 25 μg/ml
  Percent Control by Supernatant Reverse Transcriptase activity: 65 Percent Control
[2]; Day 14, 50 μg/ml
  Percent Control by Supernatant Reverse Transcriptase activity: 56 Percent Control
[2]; Day 14, 100 μg/ml
  Percent Control by Supernatant Reverse Transcriptase activity: 75 Percent Control
[2]; da 21, 1 μg/ml
  Percent Control by Supernatant Reverse Transcriptase activity: 90 Percent Control
[2]; da 21, 5 μg/ml
  Percent Control by Supernatant Reverse Transcriptase activity: 77 Percent Control
[2]; da 21, 10 μg/ml
  Percent Control by Supernatant Reverse Transcriptase activity: 74 Percent Control
[2]; da 21, 25 μg/ml
  Percent Control by Supernatant Reverse Transcriptase activity: 63 Percent Control
[2]; da 21, 50 μg/ml
  Percent Control by Supernatant Reverse Transcriptase activity: 46 Percent Control
[2]; da 21, 100 μg/ml
  Percent Control by Supernatant Reverse Transcriptase activity: 50 Percent Control
[2]; day 7
  IC50 in chronically infected PBMCs: 68 µg/mL
HeLa CD4 LTR β-gal cells
  cytotoxic effects on the HeLa CD4 LTR β-gal cells: no significant cytotoxic effects
